PubChem BioAssay AID2060892 (Molecular Pharmacology Branch, DTP, NCI, 2025)

Tested on: HOP-62 complex spheroids with HUVEC/MSC, viability
Experiment: Anticancer human tumor HOP-62 cell line growth inhibition [RAS];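 further: spheroids exposed to agents for seven days before readout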;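 on viability, T/C: 100% = DMSO vehicle control viability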
Settings: for IC50: curve of first compound; for viability, T/C: stronger effect = lower value; active means viability on the fitted dose curve at most 10% of control; inactive means the rest
Method in brief: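 Tumour cells grown as complex spheroids with HUVEC endothelial cells and mesenchymal stem cells, treated with RAS pathway inhibitor combinations. Each agent spans half-log steps from near clinical Cmax, or 10 microM where Cmax is unknown.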

[1] = second compound 0.0316 µM, first compound 0.0316 µM
[2] = second compound 0.0316 µM, first compound 0.1 µM
[3] = second compound 0.0316 µM, first compound 0.316 µM
[4] = second compound 0.0316 µM, first compound 1 µM
[5] = second compound 0.1 µM, first compound 0.0316 µM
[6] = second compound 0.1 µM, first compound 0.1 µM
[7] = second compound 0.1 µM, first compound 0.316 µM
[8] = second compound 0.1 µM, first compound 1 µM
[9] = second compound 0.316 µM, first compound 0.0316 µM
[10] = second compound 0.316 µM, first compound 0.1 µM
[11] = second compound 0.316 µM, first compound 0.316 µM
[12] = second compound 0.316 µM, first compound 1 µM
[13] = second compound 1 µM, first compound 0.0316 µM
[14] = second compound 1 µM, first compound 0.1 µM
[15] = second compound 1 µM, first compound 0.316 µM
[16] = second compound 1 µM, first compound 1 µM
[17] = second compound 3.16 µM, first compound 0.0316 µM
[18] = second compound 3.16 µM, first compound 0.1 µM
[19] = second compound 3.16 µM, first compound 0.316 µM
[20] = second compound 3.16 µM, first compound 1 µM
[21] = second compound 10 µM, first compound 0.0316 µM
[22] = second compound 10 µM, first compound 0.1 µM
[23] = second compound 10 µM, first compound 0.316 µM
[24] = second compound 10 µM, first compound 1 µM
[25] = second compound 0.0316 µM, first compound 3.16 µM
[26] = second compound 0.0316 µM, first compound 10 µM
[27] = second compound 0.1 µM, first compound 3.16 µM
[28] = second compound 0.1 µM, first compound 10 µM
[29] = second compound 0.316 µM, first compound 3.16 µM
[30] = second compound 0.316 µM, first compound 10 µM
[31] = second compound 1 µM, first compound 3.16 µM
[32] = second compound 1 µM, first compound 10 µM

C=CC(=O)Nc1cc(Nc2nccc(-c3cn(C)c4ccccc34)n2)c(OC)cc1N(C)CCN(C)C + C#Cc1c(F)ccc2cc(O)cc(-c3ncc4c(N5CC6CCC(C5)N6)nc(OCC56CCCN5CC(F)C6)nc4c3F)c12
535 nM: IC50 (second compound 3.16 µM)
inactive: viability, T/C (second compound 0.0316 µM, first compound 0.00316 µM) 109% | viability, T/C (second compound 0.0316 µM, first compound 0.01 µM) 105% | viability, T/C [1] 106% | viability, T/C [2] 109% | viability, T/C [3] 108% | viability, T/C [4] 93% | viability, T/C (second compound 0.1 µM, first compound 0.00316 µM) 108% | viability, T/C (second compound 0.1 µM, first compound 0.01 µM) 114% | viability, T/C [5] 106% | viability, T/C [6] 100% | viability, T/C [7] 101% | viability, T/C [8] 90.4% | viability, T/C (second compound 0.316 µM, first compound 0.00316 µM) 109% | viability, T/C (second compound 0.316 µM, first compound 0.01 µM) 102% | viability, T/C [9] 100% | viability, T/C [10] 112% | viability, T/C [11] 98% | viability, T/C [12] 83.6% | viability, T/C (second compound 1 µM, first compound 0.00316 µM) 104% | viability, T/C (second compound 1 µM, first compound 0.01 µM) 105% | viability, T/C [13] 98.5% | viability, T/C [14] 93.2% | viability, T/C [15] 86.9% | viability, T/C [16] 75.1% | viability, T/C (second compound 3.16 µM, first compound 0.00316 µM) 74.8% | viability, T/C (second compound 3.16 µM, first compound 0.01 µM) 74.3% | viability, T/C [17] 81% | viability, T/C [18] 81.8% | viability, T/C [19] 59.2% | viability, T/C [20] 38.9% | viability, T/C (second compound 10 µM, first compound 0.00316 µM) 47.2% | viability, T/C (second compound 10 µM, first compound 0.01 µM) 45.9% | viability, T/C [21] 53% | viability, T/C [22] 40.4% | viability, T/C [23] 35.4% | viability, T/C [24] 29.5%
> 1000 nM: IC50 (second compound 0.0316 µM) | IC50 (second compound 0.1 µM) | IC50 (second compound 0.316 µM) | IC50 (second compound 1 µM)
< 3.16 nM: IC50 (second compound 10 µM)

Cc1nc(N2CCC3(CC2)COC(C)C3N)c(CO)nc1Sc1ccnc(N)c1Cl (configuration not stated) + C=CC(=O)N1CCN(c2nc(OCC3CCCN3C)nc3c(F)c(-c4nc(N)cc(C)c4C(F)(F)F)c(Cl)cc23)C(C)C1
active: viability, T/C (second compound 0.01 µM, first compound 10 µM) 8.87% | viability, T/C [28] 9.33% | viability, T/C [32] 8.55%
< 31.6 nM: IC50 (second compound 1 µM)
52 nM: IC50 (second compound 0.1 µM)
43.9 nM: IC50 (second compound 0.0316 µM)
138 nM: IC50 (second compound 0.00316 µM)
inactive: viability, T/C (second compound 0.00316 µM, first compound 0.0316 µM) 68.6% | viability, T/C (second compound 0.00316 µM, first compound 0.1 µM) 52.6% | viability, T/C (second compound 0.00316 µM, first compound 0.316 µM) 40.3% | viability, T/C (second compound 0.00316 µM, first compound 1 µM) 28.7% | viability, T/C (second compound 0.00316 µM, first compound 3.16 µM) 14.1% | viability, T/C (second compound 0.00316 µM, first compound 10 µM) 13.8% | viability, T/C (second compound 0.01 µM, first compound 0.0316 µM) 58.6% | viability, T/C (second compound 0.01 µM, first compound 0.1 µM) 46.1% | viability, T/C (second compound 0.01 µM, first compound 0.316 µM) 32.8% | viability, T/C (second compound 0.01 µM, first compound 1 µM) 21.3% | viability, T/C (second compound 0.01 µM, first compound 3.16 µM) 10.6% | viability, T/C [1] 52% | viability, T/C [2] 44.8% | viability, T/C [3] 30.5% | viability, T/C [4] 17.4% | viability, T/C [25] 13.7% | viability, T/C [26] 9.06% | viability, T/C [5] 56.5% | viability, T/C [6] 41.5% | viability, T/C [7] 29.1% | viability, T/C [8] 19.5% | viability, T/C [27] 10.4% | viability, T/C [9] 54.8% | viability, T/C [10] 44.8% | viability, T/C [11] 31.1% | viability, T/C [12] 15.5% | viability, T/C [29] 12.1% | viability, T/C [30] 10.7% | viability, T/C [13] 49.6% | viability, T/C [14] 37.8% | viability, T/C [15] 26.1% | viability, T/C [16] 15.1% | viability, T/C [31] 11.7%
72 nM: IC50 (second compound 0.01 µM)
56.7 nM: IC50 (second compound 0.316 µM)

NC1c2ccccc2OC12CCN(c1cnc3c(N4CCCc5ncccc54)n[nH]c3n1)CC2 (configuration not stated) + C#Cc1c(F)ccc2cc(O)cc(-c3ncc4c(N5CC6CCC(C5)N6)nc(OCC56CCCN5CC(F)C6)nc4c3F)c12
772 nM: IC50 (second compound 0.1 µM)
inactive: viability, T/C [1] 103% | viability, T/C [2] 80.8% | viability, T/C [3] 73.7% | viability, T/C [4] 57.2% | viability, T/C [25] 45.7% | viability, T/C [26] 26.6% | viability, T/C [5] 92.4% | viability, T/C [6] 91.4% | viability, T/C [7] 61.5% | viability, T/C [8] 49.9% | viability, T/C [27] 28.6% | viability, T/C [28] 27.1% | viability, T/C [9] 90.9% | viability, T/C [10] 76.7% | viability, T/C [11] 49.8% | viability, T/C [12] 29.9% | viability, T/C [29] 22.3% | viability, T/C [30] 15.1% | viability, T/C [13] 60.2% | viability, T/C [14] 45.7% | viability, T/C [15] 29.7% | viability, T/C [16] 19.3% | viability, T/C [31] 13.8% | viability, T/C [32] 12.7% | viability, T/C [17] 40.9% | viability, T/C [18] 20.9% | viability, T/C [19] 15.6% | viability, T/C [20] 11.8% | viability, T/C (second compound 3.16 µM, first compound 3.16 µM) 10.8% | viability, T/C (second compound 3.16 µM, first compound 10 µM) 12.2% | viability, T/C [21] 16.2% | viability, T/C [22] 11% | viability, T/C [23] 7.6% | viability, T/C [24] 8.99% | viability, T/C (second compound 10 µM, first compound 3.16 µM) 8.52% | viability, T/C (second compound 10 µM, first compound 10 µM) 17.5%
330 nM: IC50 (second compound 0.316 µM)
71.1 nM: IC50 (second compound 1 µM)
< 31.6 nM: IC50 (second compound 3.16 µM) | IC50 (second compound 10 µM)
1820 nM: IC50 (second compound 0.0316 µM)

C#Cc1c(F)ccc2cc(O)cc(-c3ncc4c(N5CC6CCC(C5)N6)nc(OCC56CCCN5CC(F)C6)nc4c3F)c12 (configuration not stated)
inactive: viability, T/C (compound 0.0316 µM) 107% [middle of 8 runs] | viability, T/C (compound 0.1 µM) 113% [middle of 8 runs] | viability, T/C (compound 0.316 µM) 109% [middle of 8 runs] | viability, T/C (compound 1 µM) 100% [middle of 8 runs] | viability, T/C (compound 3.16 µM) 81.1% [middle of 8 runs] | viability, T/C (compound 10 µM) 48% [middle of 8 runs]
